The source of these data is PubChem BioAssay (NCI).

“And” between values parts separate entries of the source, which are not always exact repeats. Equal entries are not always repeated.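 These data come from cells grown in 96-well plates and exposed to compound for 48 hours at five concentrations. GI50 marks 50% less growth. TGI denotes the concentration required for complete inhibition of growth.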 Bounds are passed on as bounds.

What all share (test): inhibition of tumour cell growth, NCI panel, 48 h
The test system of experiment [1] is ACHN renal.
In experiment [2] the test system is HOP-62 NSCLC.
The subject of experiment [3] is NCI-H522 lung.
Experiment [4] deals with SK-MEL-28 melanoma.
The subject of experiment [5] is IGROV1 ovarian.
Experiment [6] has as its system MOLT-4 leukemia.
Experiment [7] relates to UO-31 renal.
The subject of experiment [8] is A549 NSCLC.
For experiment [9], the system named is HCT-116 colon.
Experiment [10] has as its system SK-MEL-5 melanoma.

As for `COC(=O)/C=C/c1cn(C(C)=O)c2ccc(Br)cc12`, the GI50 in experiment [1] is 29.4 µM; in experiment [2], 25000 nM; in [3] it was 21000 nM; in experiment [4], 49000 nM; in experiment [5], 19100 nM; in experiment [6], 27.4 µM. Further, the GI50 in experiment [7] was 8730 nM; in [8], 33800 nM; in experiment [9], 32600 nM; in [10], 33.5 µM. The TGI in [1] is over 100 µM; in experiment [2], over 73.5 µM; in experiment [3] it was 97.5 µM; in experiment [4], over 100 µM; in experiment [5], over 100 µM; in experiment [6] it was over 100 µM. Also, the TGI was 48.5 µM in experiment [7], over 100 µM in [8], over 100 µM in experiment [9] and over 100 µM in experiment [10].
On to `Nc1c(C(=O)c2ccc(CCCN3CCOCC3)cc2)cnn1-c1ccc(F)cc1`, for which the GI50 was over 25 µM in [1]; over 25000 nM in [2]; over 25000 nM in [3]; over 25000 nM in experiment [4]; over 25000 nM in [5]; over 25 µM in experiment [6]. The GI50 is over 25000 nM in experiment [7], over 25000 nM in experiment [8], over 25000 nM in experiment [9] and 8.01 µM in experiment [10]. The TGI in [1], in experiment [2], in experiment [3], in experiment [4], in experiment [5] and in experiment [6] was over 25 µM in each case. For the same molecule, the TGI in experiment [7] was over 25 µM; in experiment [8] it was over 25 µM; in [9], over 25 µM; in [10], 24.3 µM.
In the case of `CC1=C[P+](Cc2ccccc2)(c2ccccc2)CC1` (stereo not drawn), the TGI in [1], in experiment [2], in experiment [3], in experiment [4], in experiment [5] and in experiment [6] was over 100 µM throughout. The TGI is over 100 µM in experiment [7]; over 100 µM in experiment [8]; over 100 µM in experiment [9]; > 100 µM and 56.7 µM and 84.1 µM in [10].
`C/C(=C(\c1ccc(OCCN2CCCCCC2)cc1)c1ccc(OC(=O)Cc2ccccc2)cc1)c1ccc(Cl)cc1`: the GI50 was 2.63 µM in experiment [1]; 2670 nM in [2]; 3600 nM in [3]; 2520 nM in [4]; 2800 nM in [5]; 3.09 µM in [6]. For the same molecule, the GI50 is 2080 nM in experiment [7], 2700 nM in experiment [8], 1320 nM in experiment [9] and 2.36 µM in [10]. Besides, the TGI in experiment [1] was found to be 4.93 µM; in experiment [2] it was 5.59 µM; in experiment [3], 6.87 µM; in experiment [4], 5.03 µM; in experiment [5] it was 6.51 µM; in [6], 13.4 µM. Besides, the TGI is 4.21 µM in experiment [7], 5.41 µM in experiment [8], 3.47 µM in experiment [9] and 4.58 µM in experiment [10].
As to `COc1cc(O)c2c(c1)C(=O)c1cc3c(c(O)c1C2=O)C(OC1OC(C)C(O)C(O)C1OC)C(OC)C(C)(O)C3=O` (stereo not drawn), the GI50 in experiment [1] is 2.4 µM; in experiment [2] it was 2920 nM; in experiment [3], 2180 nM; in [4] it was 2240 nM and 1740 nM; in experiment [6], 3.21 µM and 5.19 µM; in experiment [7], 1870 nM. In addition, the GI50 in experiment [9] is 1630 nM and 665 nM; in experiment [10], 1.27 µM. Besides, the TGI in experiment [1] is 12.4 µM; in experiment [2] it was 26.1 µM and 9.56 µM; in experiment [3], 6.7 µM and 9.45 µM; in experiment [4] it was 5.97 µM and 5.4 µM; in experiment [5], 7.16 µM; in experiment [6], 11.7 µM and 17.3 µM. In addition, the TGI in experiment [7] was 12.2 µM and 7.13 µM; in experiment [8], 12 µM; in experiment [9], 6.56 µM and 5.88 µM; in experiment [10] it was 2.57 µM and 2.26 µM.
As to `CCC[CH2][Sn]1([CH2]CCC)[O]C(=O)c2ccc(C)cc2[O]1`, the GI50 was 0.404 µM in experiment [1]; 2160 nM in experiment [2]; 113 nM in [3]; 412 nM in experiment [4]; 1170 nM in experiment [5]; 0.222 µM in experiment [6]. In addition, the GI50 in experiment [7] is 845 nM; in experiment [8], 1570 nM; in experiment [9], 985 nM; in experiment [10] it was 1.38 µM. Besides, the TGI in [1] was 1.42 µM; in experiment [2], 3.88 µM; in [3], 0.239 µM; in experiment [4], 1.45 µM; in experiment [5], 2.44 µM; in experiment [6] it was 0.621 µM. Moreover, the TGI in experiment [7] is 2.08 µM; in experiment [8], 2.97 µM; in experiment [9] it was 2.18 µM; in [10] it was 2.7 µM.
For `CNC(=O)Oc1cc(C)c(/C=C/c2cncc(C(=O)NC)c2)c(C)c1`, the GI50 is over 25 µM in [1]; over 22300 nM in [2]; over 23400 nM in [3]; 18800 nM in experiment [4]; over 23200 nM in [5]; over 25 µM in [6]. The GI50 in [7] is 13300 nM; in experiment [8], over 25000 nM; in experiment [9], over 25000 nM; in [10], over 22.1 µM. Also, the TGI in experiment [1], in experiment [2], in experiment [3], in [4], in [5] and in experiment [6] was over 25 µM in each case. In addition, the TGI in experiment [7], in [8], in [9] and in experiment [10] was over 25 µM throughout.
As for `O=S(=O)(Nc1cc(Cl)ccc1Cl)c1ccc(-c2cnc(C3CC3)o2)cc1`, the GI50 in experiment [1] was 4.1 µM; in experiment [2], 1640 nM; in [3], 1750 nM; in experiment [4], 6210 nM; in experiment [5], 673 nM; in experiment [6], 1.64 µM. Moreover, the GI50 is 2490 nM in [7], 1660 nM in experiment [8], 453 nM in experiment [9] and 3.36 µM in [10]. Also, the TGI in experiment [1] was 76.6 µM; in [2] it was 27.5 µM; in experiment [3], 39.2 µM; in experiment [4], 82.8 µM; in experiment [5], over 100 µM; in [6] it was over 100 µM. The TGI in [7] is 43.5 µM; in experiment [8] it was over 100 µM; in experiment [9], 15 µM; in experiment [10], 21.8 µM.
